Assay results taken from patent US20240301000A1, “TETRAPEPTIDE DERIVATIVE,COSMETIC COMPOSITION OR PHARMACEUTICAL COMPOSITION AND USE THEREOF” (SHENZHEN WINKEY TECHNOLOGY CO., LTD, priority 2021, published 2024).
Residues, ends and D or L forms follow the SMILES beside them. *: point of attachment. X1 = O=C(OCc1cc(=O)c(O)co1)*; Nicotinoyl = O=C(c1cccnc1)*

What was measured:
Type in all cases: cell-based, Human
[1] = test system: α-MSH; assay: Cell assay for inhibition of α-MSH generation (ELISA, HaCaT supernatant); settings: 100 ppm, 48 h; for statistical difference in the α-MSH inhibition compared with the control group: HaCaT (FIG. 2); for effect on α-MSH expression: HaCaT supernatant, compared with PBS control group (FIG. 2)
Experimental: Fetal bovine serum, DMEM medium, penicillin, streptomycin, and an α-MSH ELISA kit.
(§1) Human keratinocytes (HaCaT) were purchased from the Kunming Cell Bank of China Center for Type Culture Collection under the Chinese Academy of Sciences.
• 100 ppm of the reference peptide, 100 ppm of the peptide (1), 100 ppm of the peptide (3), 100 ppm of the peptide (5), 100 ppm of NA, 100 ppm of TXC, and 100 ppm of KA.
(§2) The frozen HaCaT cells were cultured and passaged at a ratio of 1:2 to about the 5th generation, and the cells in better growth were selected as experiment subjects.
When the cells were about 80% confluent, the samples were added to each group. In the control group, a PBS solution was added and supplemented with a culture medium to 1000 μL. In the drug groups, the diluted active substance and the culture medium were added to 1000 μL and the groups were further incubated in a 5% CO2 incubator at 37° C. for 48 h. After the completion of the culture, the solutions were centrifuged at 3000 rpm for 10 min, in each of which a cell supernatant was collected to obtain a sample liquid. Operations were performed according to the instructions of the α-MSH kit.
α-MSH can promote the formation of melanin by activating tyrosinase. Therefore, down-regulation of the α-MSH expression can reduce melanin generation and exert a whitening effect.

[2] = test system: IL-6; assay: Anti-inflammatory cell assay, UV-irradiated HaCaT cells, IL-6 ELISA; settings: 50 ppm, 48 h after UV irradiation, compared with UV group (FIG. 3)
Experimental: (§3) Fetal bovine serum, DMEM medium, penicillin, streptomycin, an IL-6 ELISA kit and a TNF-α ELISA kit.
as §1
(§4) • 50 ppm of the reference peptide, 50 ppm of the peptide (1), 50 ppm of the peptide (3), and 50 ppm of the peptide (5).
as §2
(§5) When the cells were about 80% confluent, a model of inflammation stimulated by UV radiation was established. In the control group, a PBS solution was added and supplemented with the culture medium to 1000 μL, while no UV irradiation was performed; The UV group and the drug groups were exposed to an […] UV light. After irradiation, in the UV group the PBS solution and a culture medium were added to 1000 μL, and in the drug groups the diluted active substance and the culture medium were added to 1000 μL. The control group, the UV group, and the drug groups were further incubated in a 5% CO2 incubator at 37° C. for 48 h. After the completion of the culture, the solutions were centrifuged at 3000 rpm for 10 min, in each of which a cell supernatant was collected to obtain a sample liquid. […]

[3] = test system: TNF-α; assay: Anti-inflammatory cell assay, UV-irradiated HaCaT cells, TNF-α ELISA; settings: 50 ppm, 48 h after UV irradiation, compared with UV group (FIG. 4)
Experimental: as §3, §1, §4, §2, §5

[4] = test system: HaCaT cells; assay: Cell viability assay (MTT) in HaCaT cells; settings: 1, 10, 100 and 200 ppm, 72 h, compared with PBS control group (FIG. 1)
Text: as §1
• the peptide H-Pro-Lys-Glu-Lys-OH (hereinafter referred to as the reference peptide), at a test concentration of 1 ppm, 10 ppm, 100 ppm, and 200 ppm, respectively; • the peptide (1), at a test concentration of 1 ppm, 10 ppm, 100 ppm, and 200 ppm, respectively; • the peptide (3), at a test concentration of 1 ppm, 10 ppm, 100 ppm, and 200 ppm, respectively; • the peptide (5), at a test concentration of 1 ppm, 10 ppm, 100 ppm, and 200 ppm, respectively.
The purpose of this experiment is to evaluate cell viability 72 h after administration and determine the effect of the peptide derivatives of the present invention on cell viability by using HaCaT cells as the experiment subject.
as §2
The cells were inoculated in a 96-well plate at 2000 cells/well. After the cells adhered to the wall, samples of the drug groups and the control group were added according to the multiple dilution method, supplemented with a culture medium to 200 μL, and cultured in a 5% CO2 incubator at 37° C. for 72 h.
Then 20 μL 5 mg/ml MTT was added to each well and the incubation was continued in the 5% CO2 incubator at 37° C. for 4 h. The original solution was removed and DMSO was added at 150 μL/well. After 5 min, the microplate reader was used to read the reference OD values at 490 nm and 630 nm wavelengths.
The MTT assay is a method of detecting cell survival and growth. The measured OD values are directly proportional to cell viability.

Compound | statistical difference in the α-MSH inhibition compared with the control group [1] | effect on α-MSH expression [1] | effect on IL-6 expression [2] | effect on TNF-α expression [3] | effect on HaCaT cell viability [4]
H-Pro-Lys-Glu-Lys-OH (H-PKEK-OH) [reference peptide] | no statistical difference | inhibited the α-MSH expression to a certain extent | significantly down-regulated | inhibited the TNF-α expression to a certain extent, but the inhibitory effect was not obvious | –
TXC-Pro-Lys-Glu-Lys-OH [peptide (3)] | – | significantly down-regulated | significantly down-regulated | significantly down-regulated | no significant effect
NCCCCC(NC(=O)C(CCC(=O)O)NC(=O)C(CCCCN)NC(=O)C1CCCN1C(=O)c1cccnc1)C(=O)O (stereo not drawn) [peptide (1), NA-Pro-Lys-Glu-Lys-OH] (Nicotinoyl-PKEK-OH; configuration not given here) | – | – | – | – | no significant effect
O=C(O)c1cccnc1 [NA, niacin] | no statistical difference | inhibited the α-MSH expression to a certain extent | – | – | –
tranexamic acid [TXC] | – | inhibited the α-MSH expression to a certain extent | – | – | –
O=c1cc(CO)occ1O [KA, kojic acid] | no statistical difference | inhibited the α-MSH expression to a certain extent | – | – | –
NCCCCC(NC(=O)C(CCC(=O)O)NC(=O)C(CCCCN)NC(=O)C1CCCN1C(=O)OCc1cc(=O)c(O)co1)C(=O)O (stereo not drawn) [peptide (5), KA-CO-Pro-Lys-Glu-Lys-OH] (X1-PKEK-OH; configuration not given here) | – | – | – | – | no significant effect
